From US7531507B2, “Acylated nonadepsipeptides containing pyridyl alanine residues” (AiCuris GmbH & Co. KG, priority 2004, dated 2009)
Non-standard residues stand in square brackets, D forms with d. Residues, ends and D or L forms follow the SMILES beside them. *: point of attachment. X2 = CC(C)(C)C[C@@H](N)C(=O)N[C@@H](Cc1cccnc1)C(=O)N[C@H](C(N)=O)[C@H](O*)c1ccccc1; Asn(3S-OH) = NC(=O)[C@@H](O)[C@H](N)C(=O)O; X1 = CC(C)[C@@H](O)[C@H](C)C(=O)*; aThr = C[C@H](O)[C@H](N)C(=O)O

What was measured:
[1] = Determination of the free fraction (fu) in plasma via Transil or ultrafiltration; assay type: in vitro ADME, rat; conditions: rat, plasma
Procedure: Principle of the Determination of the Free Fraction via Transil:
The method described herein for determining the free fraction (fu) of a test substance is divided into 2 parts:
a) Determination of the Transil®/buffer partitioning ratio (MAbuffer) by incubating the test substance in a Transil® buffer (pH 7.4) dispersion and subsequently determining the concentration in the dispersion and in the buffer supernatant.
b) Determination of the Transil®/plasma partitioning ratio (MAplasma) by incubating the test substance in a Transil® plasma dispersion and subsequently determining the concentration in the dispersion and in the plasma.
The quotient of the two partitioning ratios gives fu.
Where substances are highly protein-bound, the plasma is usually diluted with isotonic phosphate buffer (pH 7.4) and then suspended with Transil®. Determination of fu′ (free fraction in diluted plasma) in this diluted protein solution takes place in analogy to the determination of fu. The free fraction in undiluted plasma is calculated from fu′ and the dilution factor.
Concerning this method, compare also: Schuhmacher, Joachim; Kohlsdorfer, Christian; Buehner, Klaus; Brandenburger, Tim; Kruk, Renate, “High-throughput determination of the free fraction of drugs strongly bound to plasma proteins.” Journal of Pharmaceutical Sciences 2004, 93, 816-830.
Determination of the Membrane Affinity of a Test Substance After Partitioning Between Transil® and Buffer (MAbuffer):
All incubations are carried out in suitable glass vessels, e.g. glass vials, ground-joint test tubes. The total volume is usually 0.5-5 ml, and the Transil® volume is 10-100 μl. If the membrane affinities are expected to be high, the Transil® dispersion can be diluted up to 20 times with phosphate buffer of pH 7.4, e.g. Dulbecco's PBS. Phosphate buffer of pH 7.4 is introduced into the incubation vessels, and the Transil® is pipetted in after thorough mixing. The test substance is pipetted in at a concentration of, for example, 200 ng/ml, n=6. The proportion of organic solvents should be ≦2%. The mixtures are incubated at room temperature i.e. on a mini-shaker at an angle of about 45°, at about 400 rpm for 30 min. The 100% value is determined by taking at least one aliquot of, for example, 100 μl, and the remaining mixture is centrifuged at about 1800 g for about 10 min. […]
The plasma of the species to be investigated is filtered through a semipermeable membrane. The concentration of substance in the filtrate is measured, and the free fraction fU is calculated therefrom. […] The concentration of substance in the ultrafiltrate (Cu, unbound substance concentration) and in the plasma before centrifugation (C; total substance concentration) is measured. The free fraction is calculated by the formula fu (%)=Cu/C*100.

E. faecalis ICB 27159 = assay type: cell-based, Enterococcus faecalis; conditions: ICB 27159
Procedure: (§1) Determination of the Minimum Inhibitory Concentration (MIC):
(§2) The MIC is determined in the liquid dilution test in accordance with the NCCLS guidelines. Overnight cultures of Staphylococcus aureus 133, Enterococcus faecalis 27159, E. faecium 4147 and Streptococcus pneumoniae G9a are incubated with the described test substances in a 1:2 dilution series. The MIC determination is carried out with a cell count of 10^5 microbes per ml in Isosensitest medium (Difco, Irvine/USA), with the exception of S. pneumoniae which is tested in BHI broth (Difco, Irvine/USA) with 10% bovine serum with a cell count of 10^6 microbes per ml. The cultures are incubated at 37° C. for 18-24 hours, S. pneumoniae in the presence of 10% CO2.
(§3) The MIC is defined as the lowest concentration of each substance at which visible bacterial growth no longer occurs. The MIC values are reported in μg/ml.

E. faecium L4001 = assay type: cell-based, Enterococcus faecium; conditions: L4001
[2] = test system: Streptococcus pneumoniae G9a; assay type: cell-based; conditions: G9a
Procedure: as §1, §2, §3

[3] = test system: Staphylococcus aureus 133; assay type: cell-based; conditions: 133
Procedure: as §1, §2, §3

fraction unbound at 30 min [1]: 0.086
MIC E. faecalis ICB 27159 (E. faecalis ICB 27159): 1 µg/mL
MIC E. faecium L4001 (E. faecium L4001): 1 µg/mL
MIC S. pneumoniae G9a [2]: 0.5 µg/mL
MIC S. aureus 133 [3]: 0.5 µg/mL
Structure (SMILES): CC[C@H](C)[C@H](NC(=O)[C@@H](CCCNC(=N)N)NC(=O)[C@H](CC(C)C)NC(=O)[C@@H](C)[C@H](O)C(C)C)C(=O)N[C@H](C(=O)NCC(=O)N[C@H](C(=O)N[C@@H](CO)C(=O)O[C@H](c1ccccc1)[C@H](NC(=O)[C@H](Cc1cccnc1)NC(=O)[C@H](N)CC(C)(C)C)C(N)=O)[C@H](O)C(N)=O)[C@H](C)O.O=C(O)C(F)(F)F.O=C(O)C(F)(F)F.O=C(O)C(F)(F)F [Example 5, 3-tert-Butyl-D-alanyl-3-(pyridin-3-yl)-L-alanyl-de(1-D-leucyl-2-L-leucyl)lysobactin tristrifluoroacetate, reference compound] (X1-L[dR]I[aThr]G[Asn(3S-OH)]S-X2)
